Measured values from US9340590B2 (priority 2011, dated 2016).
Positions of bridges follow the written chain, without caps; N, C: chain ends. Non-standard residues stand in square brackets, D forms with d. Residues, ends and D or L forms follow the SMILES beside them. hPhe = N[C@@H](CCc1ccccc1)C(=O)O; Pra = C#CC[C@H](N)C(=O)O; Sar = CNCC(=O)O

Tests used:
Test in all cases: cell-based
hNav1.3 = hNav1.3 (Homo sapiens, UniProt Q9NY46); conditions: IonWorks Quattro, use-dependent protocol, hNav1.3; read-out: IWQ Use Nav1.3
hNav1.7 = hNav1.7 (Homo sapiens, UniProt Q15858); assay type: cell-based; conditions: IonWorks Quattro, use-dependent protocol, hNav1.7; read-out: IWQ Use Nav1.7
hNav1.5 = hNav1.5 (Homo sapiens, UniProt Q14524); conditions: IonWorks Quattro, use-dependent protocol, hNav1.5; read-out: IWQ Use Nav1.5
Chain of hNav1.5 (Q14524 whole entry, looked up): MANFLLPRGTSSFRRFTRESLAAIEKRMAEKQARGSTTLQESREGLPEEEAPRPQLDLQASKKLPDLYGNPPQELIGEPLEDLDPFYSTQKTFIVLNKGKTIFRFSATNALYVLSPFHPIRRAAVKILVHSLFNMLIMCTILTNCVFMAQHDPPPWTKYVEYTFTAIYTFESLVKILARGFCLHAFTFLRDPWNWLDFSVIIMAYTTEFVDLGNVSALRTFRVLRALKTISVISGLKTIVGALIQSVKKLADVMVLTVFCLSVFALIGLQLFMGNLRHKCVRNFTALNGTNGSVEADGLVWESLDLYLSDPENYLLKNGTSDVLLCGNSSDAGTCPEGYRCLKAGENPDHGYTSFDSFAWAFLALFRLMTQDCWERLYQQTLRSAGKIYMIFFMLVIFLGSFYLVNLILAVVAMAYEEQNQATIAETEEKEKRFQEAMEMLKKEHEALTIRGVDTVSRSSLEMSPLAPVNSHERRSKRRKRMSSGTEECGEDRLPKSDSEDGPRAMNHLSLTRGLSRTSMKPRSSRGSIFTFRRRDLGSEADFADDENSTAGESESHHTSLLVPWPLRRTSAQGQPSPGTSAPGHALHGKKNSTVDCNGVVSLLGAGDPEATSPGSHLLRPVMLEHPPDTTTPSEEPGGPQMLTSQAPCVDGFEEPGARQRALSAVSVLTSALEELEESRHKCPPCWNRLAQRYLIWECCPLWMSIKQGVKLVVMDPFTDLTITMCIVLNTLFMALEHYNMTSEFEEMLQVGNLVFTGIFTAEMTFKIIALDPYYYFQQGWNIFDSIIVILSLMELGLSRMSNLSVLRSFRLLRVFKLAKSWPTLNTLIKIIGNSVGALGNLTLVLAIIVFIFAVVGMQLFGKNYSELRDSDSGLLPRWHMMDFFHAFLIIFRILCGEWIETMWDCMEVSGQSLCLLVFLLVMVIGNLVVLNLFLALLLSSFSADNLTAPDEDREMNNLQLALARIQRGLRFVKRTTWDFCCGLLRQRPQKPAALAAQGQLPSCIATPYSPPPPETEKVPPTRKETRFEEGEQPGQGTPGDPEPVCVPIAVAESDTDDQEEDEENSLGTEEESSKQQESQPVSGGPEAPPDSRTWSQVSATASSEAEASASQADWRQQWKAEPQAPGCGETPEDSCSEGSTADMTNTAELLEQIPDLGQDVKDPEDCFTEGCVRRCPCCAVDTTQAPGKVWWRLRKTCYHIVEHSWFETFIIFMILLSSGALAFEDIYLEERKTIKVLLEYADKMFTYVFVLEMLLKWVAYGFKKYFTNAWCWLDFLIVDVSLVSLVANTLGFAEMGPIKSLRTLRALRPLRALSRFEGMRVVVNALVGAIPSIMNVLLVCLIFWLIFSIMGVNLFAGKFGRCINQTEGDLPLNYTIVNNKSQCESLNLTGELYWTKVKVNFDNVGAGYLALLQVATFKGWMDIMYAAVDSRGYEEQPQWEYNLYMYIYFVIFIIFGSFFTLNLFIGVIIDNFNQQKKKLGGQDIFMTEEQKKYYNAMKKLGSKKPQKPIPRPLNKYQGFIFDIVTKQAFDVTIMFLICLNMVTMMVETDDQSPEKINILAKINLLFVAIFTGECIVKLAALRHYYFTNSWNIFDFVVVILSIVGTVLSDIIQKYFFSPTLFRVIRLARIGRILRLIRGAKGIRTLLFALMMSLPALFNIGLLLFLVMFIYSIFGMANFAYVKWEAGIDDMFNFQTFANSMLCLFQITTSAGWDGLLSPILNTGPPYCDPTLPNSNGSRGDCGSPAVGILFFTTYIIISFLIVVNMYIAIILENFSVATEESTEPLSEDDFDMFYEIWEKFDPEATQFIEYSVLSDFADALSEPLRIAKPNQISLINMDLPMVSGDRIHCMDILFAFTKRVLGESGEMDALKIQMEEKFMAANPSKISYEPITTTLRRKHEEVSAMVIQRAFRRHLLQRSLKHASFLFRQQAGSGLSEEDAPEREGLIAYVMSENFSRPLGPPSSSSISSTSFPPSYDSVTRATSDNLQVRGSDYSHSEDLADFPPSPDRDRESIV

Chain of hNav1.7 (Q15858 whole entry, looked up): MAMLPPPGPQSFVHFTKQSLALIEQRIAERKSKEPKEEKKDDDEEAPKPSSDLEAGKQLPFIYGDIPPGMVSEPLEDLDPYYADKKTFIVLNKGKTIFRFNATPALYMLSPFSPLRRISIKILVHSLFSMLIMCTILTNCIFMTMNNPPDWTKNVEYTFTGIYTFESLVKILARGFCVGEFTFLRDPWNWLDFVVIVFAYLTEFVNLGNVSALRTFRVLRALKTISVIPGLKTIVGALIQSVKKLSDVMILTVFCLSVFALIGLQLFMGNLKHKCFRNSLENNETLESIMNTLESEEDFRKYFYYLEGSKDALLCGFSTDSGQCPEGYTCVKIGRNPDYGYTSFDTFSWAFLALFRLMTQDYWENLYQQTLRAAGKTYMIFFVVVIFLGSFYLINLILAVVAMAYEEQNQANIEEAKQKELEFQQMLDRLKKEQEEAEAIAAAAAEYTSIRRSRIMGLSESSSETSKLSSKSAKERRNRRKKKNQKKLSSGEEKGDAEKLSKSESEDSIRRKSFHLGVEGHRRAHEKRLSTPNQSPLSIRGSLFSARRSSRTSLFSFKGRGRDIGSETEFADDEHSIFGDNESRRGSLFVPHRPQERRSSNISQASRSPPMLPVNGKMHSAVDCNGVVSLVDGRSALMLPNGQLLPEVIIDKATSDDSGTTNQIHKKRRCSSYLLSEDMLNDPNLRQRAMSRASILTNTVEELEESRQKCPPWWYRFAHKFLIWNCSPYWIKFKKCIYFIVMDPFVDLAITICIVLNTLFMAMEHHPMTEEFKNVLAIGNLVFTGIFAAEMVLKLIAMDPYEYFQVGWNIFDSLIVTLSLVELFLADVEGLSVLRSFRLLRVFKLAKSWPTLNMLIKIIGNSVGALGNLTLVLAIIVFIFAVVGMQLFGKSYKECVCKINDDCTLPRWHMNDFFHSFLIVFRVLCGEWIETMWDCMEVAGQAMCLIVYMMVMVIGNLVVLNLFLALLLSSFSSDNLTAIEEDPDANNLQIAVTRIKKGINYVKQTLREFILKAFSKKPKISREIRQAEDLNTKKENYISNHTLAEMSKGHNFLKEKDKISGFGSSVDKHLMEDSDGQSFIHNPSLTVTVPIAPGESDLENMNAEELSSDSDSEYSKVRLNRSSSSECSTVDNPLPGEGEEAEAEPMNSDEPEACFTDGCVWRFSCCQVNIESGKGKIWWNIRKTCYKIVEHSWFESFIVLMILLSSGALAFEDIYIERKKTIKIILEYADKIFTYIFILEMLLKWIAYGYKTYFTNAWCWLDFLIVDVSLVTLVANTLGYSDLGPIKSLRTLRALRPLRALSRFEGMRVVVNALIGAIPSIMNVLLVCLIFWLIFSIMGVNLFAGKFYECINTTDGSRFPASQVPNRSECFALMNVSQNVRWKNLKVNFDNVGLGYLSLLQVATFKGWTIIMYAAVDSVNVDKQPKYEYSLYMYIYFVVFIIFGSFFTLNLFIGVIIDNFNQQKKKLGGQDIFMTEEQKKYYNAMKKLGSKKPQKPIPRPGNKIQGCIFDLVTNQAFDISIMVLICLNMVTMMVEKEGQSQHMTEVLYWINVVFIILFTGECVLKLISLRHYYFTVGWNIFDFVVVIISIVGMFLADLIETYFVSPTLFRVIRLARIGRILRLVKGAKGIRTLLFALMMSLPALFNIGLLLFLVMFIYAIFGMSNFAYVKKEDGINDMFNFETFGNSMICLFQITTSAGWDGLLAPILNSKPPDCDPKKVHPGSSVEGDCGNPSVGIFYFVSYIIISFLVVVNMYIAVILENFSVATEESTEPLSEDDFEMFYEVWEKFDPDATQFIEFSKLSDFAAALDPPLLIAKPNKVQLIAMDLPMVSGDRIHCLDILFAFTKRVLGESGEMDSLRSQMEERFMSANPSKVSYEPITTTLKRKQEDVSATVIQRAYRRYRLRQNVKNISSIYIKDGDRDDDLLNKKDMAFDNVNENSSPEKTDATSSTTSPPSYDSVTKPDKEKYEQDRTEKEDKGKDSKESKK

SMILES: CC[C@H](C)[C@@H]1NC(=O)[C@@H]2CSSC[C@@H]3NC(=O)[C@H](C(C)C)NC(=O)[C@H](CC(C)C)NC(=O)[C@H](CC(N)=O)NC(=O)[C@@H]4CCCN4C(=O)[C@H](CCCNC(=N)N)NC(=O)[C@H](CSSC[C@H](NC(=O)[C@@H](N)CC(=O)O)C(=O)N[C@@H](CC(C)C)C(=O)NCC(=O)N[C@@H](CCc4ccccc4)C(=O)N[C@@H](Cc4ccccc4)C(=O)N[C@@H](CCCNC(=N)N)C(=O)N[C@@H](CCCCN)C(=O)N2)NC(=O)[C@H](CSSC[C@@H](C(=O)N[C@@H](CCCCN)C(=O)N[C@@H](Cc2ccc(O)cc2)C(=O)N[C@H](C(=O)N[C@@H](Cc2ccccc2)C(N)=O)C(C)C)NC(=O)[C@H](Cc2c[nH]c4ccccc24)NC(=O)[C@H](CCCCN)NC(=O)[C@H](Cc2c[nH]cn2)NC(=O)[C@H]([C@@H](C)O)NC(=O)[C@H](CCCNC(=N)N)NC(=O)[C@H](CO)NC3=O)NC(=O)[C@H](CCCCN)NC(=O)[C@H](CC(=O)O)NC(=O)[C@H](CC(N)=O)NC(=O)[C@H](CC(=O)O)NC(=O)[C@@H]2CCCN2C1=O [compound 631] (H-DCLG[hPhe]FRKCIPDNDKCCRPNLVCSRTHKWCKYVF-NH2; disulfide 2-17, 9-23, 16-30)
- IC50 (hNav1.3): 5 nM
- IC50 (hNav1.7): 19 nM
- IC50 (hNav1.5): 4900 nM

SMILES: CC[C@H](C)[C@@H]1NC(=O)[C@@H]2CSSC[C@@H]3NC(=O)[C@H](C(C)C)NC(=O)[C@H](CC(C)C)NC(=O)[C@H](CC(N)=O)NC(=O)[C@@H]4CCCN4C(=O)[C@H](CCCNC(=N)N)NC(=O)[C@H](CSSC[C@H](NC(=O)[C@@H](N)CC(=O)O)C(=O)N[C@@H](CC(C)C)C(=O)NCC(=O)N(C)CC(=O)N[C@@H](Cc4ccccc4)C(=O)N[C@@H](CCCNC(=N)N)C(=O)N[C@@H](CCCCN)C(=O)N2)NC(=O)[C@H](CSSC[C@@H](C(=O)N[C@@H](CCCCN)C(=O)N[C@@H](Cc2ccc(O)cc2)C(=O)N[C@H](C(=O)N[C@@H](Cc2ccccc2)C(N)=O)C(C)C)NC(=O)[C@H](Cc2c[nH]c4ccccc24)NC(=O)[C@H](CCCCN)NC(=O)[C@H](Cc2c[nH]cn2)NC(=O)[C@H]([C@@H](C)O)NC(=O)[C@H](CCCNC(=N)N)NC(=O)[C@H](CO)NC3=O)NC(=O)[C@H](CCCCN)NC(=O)[C@H](CC(=O)O)NC(=O)[C@H](CC(N)=O)NC(=O)[C@H](CC(=O)O)NC(=O)[C@@H]2CCCN2C1=O [compound 632] (H-DCLG[Sar]FRKCIPDNDKCCRPNLVCSRTHKWCKYVF-NH2; disulfide 2-17, 9-23, 16-30)
- IC50 (hNav1.3): 450 nM
- IC50 (hNav1.7): 680 nM
- IC50 (hNav1.5): 10500 nM

SMILES: CC[C@H](C)[C@@H]1NC(=O)[C@@H]2CSSC[C@@H]3NC(=O)[C@H](C(C)C)NC(=O)[C@H](CC(C)C)NC(=O)[C@H](CC(N)=O)NC(=O)[C@@H]4CCCN4C(=O)[C@H](CCCNC(=N)N)NC(=O)[C@H](CSSC[C@H](NC(=O)[C@@H](N)CC(=O)O)C(=O)N[C@@H](CC(C)C)C(=O)NCC(=O)NCCC(=O)N[C@@H](CC(C)C)C(=O)N[C@@H](CCCNC(=N)N)C(=O)N[C@@H](CCCCN)C(=O)N2)NC(=O)[C@H](CSSC[C@@H](C(=O)N[C@@H](CCCCN)C(=O)N[C@@H](Cc2ccc(O)cc2)C(=O)N[C@H](C(=O)N[C@@H](Cc2ccccc2)C(N)=O)C(C)C)NC(=O)[C@H](Cc2c[nH]c4ccccc24)NC(=O)[C@H](CCCCN)NC(=O)[C@H](Cc2c[nH]cn2)NC(=O)[C@H]([C@@H](C)O)NC(=O)[C@H](CCCNC(=N)N)NC(=O)[C@H](CO)NC3=O)NC(=O)[C@H](CCCCN)NC(=O)[C@H](CC(=O)O)NC(=O)[C@H](CC(N)=O)NC(=O)[C@H](CC(=O)O)NC(=O)[C@@H]2CCCN2C1=O [compound 634]
- IC50 (hNav1.3): 18100 nM
- IC50 (hNav1.7): 9300 nM
- IC50 (hNav1.5): 14100 nM

SMILES: CC[C@@H]1NC(=O)CNC(=O)[C@H](CC(C)C)NC(=O)[C@@H](NC(=O)[C@@H](N)CC(=O)O)CSSC[C@@H]2NC(=O)[C@@H]3CSSC[C@@H](C(=O)N[C@@H](CCCCN)C(=O)N[C@@H](Cc4ccc(O)cc4)C(=O)N[C@H](C(=O)N[C@@H](Cc4ccccc4)C(N)=O)C(C)C)NC(=O)[C@H](Cc4c[nH]c5ccccc45)NC(=O)[C@H](CCCCN)NC(=O)[C@H](Cc4c[nH]cn4)NC(=O)[C@H]([C@@H](C)O)NC(=O)[C@H](CCCNC(=N)N)NC(=O)[C@H](CO)NC(=O)[C@H](CSSC[C@H](NC(=O)[C@H](CCCCN)NC(=O)[C@H](CCCNC(=N)N)NC(=O)[C@H](CC(C)C)NC1=O)C(=O)N[C@@H]([C@@H](C)CC)C(=O)N1CCC[C@H]1C(=O)N[C@@H](CC(=O)O)C(=O)N[C@@H](CC(N)=O)C(=O)N[C@@H](CC(=O)O)C(=O)N[C@@H](CCCCN)C(=O)N3)NC(=O)[C@H](C(C)C)NC(=O)[C@H](CC(C)C)NC(=O)[C@H](CC(N)=O)NC(=O)[C@@H]1CCCN1C(=O)[C@H](CCCNC(=N)N)NC2=O [compound 636]
- IC50 (hNav1.3): 1000 nM
- IC50 (hNav1.7): 290 nM
- IC50 (hNav1.5): 16700 nM

SMILES: CCC[C@@H]1NC(=O)CNC(=O)[C@H](CC(C)C)NC(=O)[C@@H](NC(=O)[C@@H](N)CC(=O)O)CSSC[C@@H]2NC(=O)[C@@H]3CSSC[C@@H](C(=O)N[C@@H](CCCCN)C(=O)N[C@@H](Cc4ccc(O)cc4)C(=O)N[C@H](C(=O)N[C@@H](Cc4ccccc4)C(N)=O)C(C)C)NC(=O)[C@H](Cc4c[nH]c5ccccc45)NC(=O)[C@H](CCCCN)NC(=O)[C@H](Cc4c[nH]cn4)NC(=O)[C@H]([C@@H](C)O)NC(=O)[C@H](CCCNC(=N)N)NC(=O)[C@H](CO)NC(=O)[C@H](CSSC[C@H](NC(=O)[C@H](CCCCN)NC(=O)[C@H](CCCNC(=N)N)NC(=O)[C@H](CC(C)C)NC1=O)C(=O)N[C@@H]([C@@H](C)CC)C(=O)N1CCC[C@H]1C(=O)N[C@@H](CC(=O)O)C(=O)N[C@@H](CC(N)=O)C(=O)N[C@@H](CC(=O)O)C(=O)N[C@@H](CCCCN)C(=O)N3)NC(=O)[C@H](C(C)C)NC(=O)[C@H](CC(C)C)NC(=O)[C@H](CC(N)=O)NC(=O)[C@@H]1CCCN1C(=O)[C@H](CCCNC(=N)N)NC2=O [compound 637]
- IC50 (hNav1.3): 710 nM
- IC50 (hNav1.7): 95 nM
- IC50 (hNav1.5): 8000 nM

SMILES: CCCC[C@@H]1NC(=O)CNC(=O)[C@H](CC(C)C)NC(=O)[C@@H](NC(=O)[C@@H](N)CC(=O)O)CSSC[C@@H]2NC(=O)[C@@H]3CSSC[C@@H](C(=O)N[C@@H](CCCCN)C(=O)N[C@@H](Cc4ccc(O)cc4)C(=O)N[C@H](C(=O)N[C@@H](Cc4ccccc4)C(N)=O)C(C)C)NC(=O)[C@H](Cc4c[nH]c5ccccc45)NC(=O)[C@H](CCCCN)NC(=O)[C@H](Cc4c[nH]cn4)NC(=O)[C@H]([C@@H](C)O)NC(=O)[C@H](CCCNC(=N)N)NC(=O)[C@H](CO)NC(=O)[C@H](CSSC[C@H](NC(=O)[C@H](CCCCN)NC(=O)[C@H](CCCNC(=N)N)NC(=O)[C@H](CC(C)C)NC1=O)C(=O)N[C@@H]([C@@H](C)CC)C(=O)N1CCC[C@H]1C(=O)N[C@@H](CC(=O)O)C(=O)N[C@@H](CC(N)=O)C(=O)N[C@@H](CC(=O)O)C(=O)N[C@@H](CCCCN)C(=O)N3)NC(=O)[C@H](C(C)C)NC(=O)[C@H](CC(C)C)NC(=O)[C@H](CC(N)=O)NC(=O)[C@@H]1CCCN1C(=O)[C@H](CCCNC(=N)N)NC2=O [compound 638]
- IC50 (hNav1.3): 99 nM
- IC50 (hNav1.7): 25 nM
- IC50 (hNav1.5): 10600 nM

SMILES: CCCCCCCC[C@@H]1NC(=O)CNC(=O)[C@H](CC(C)C)NC(=O)[C@@H](NC(=O)[C@@H](N)CC(=O)O)CSSC[C@@H]2NC(=O)[C@@H]3CSSC[C@@H](C(=O)N[C@@H](CCCCN)C(=O)N[C@@H](Cc4ccc(O)cc4)C(=O)N[C@H](C(=O)N[C@@H](Cc4ccccc4)C(N)=O)C(C)C)NC(=O)[C@H](Cc4c[nH]c5ccccc45)NC(=O)[C@H](CCCCN)NC(=O)[C@H](Cc4c[nH]cn4)NC(=O)[C@H]([C@@H](C)O)NC(=O)[C@H](CCCNC(=N)N)NC(=O)[C@H](CO)NC(=O)[C@H](CSSC[C@H](NC(=O)[C@H](CCCCN)NC(=O)[C@H](CCCNC(=N)N)NC(=O)[C@H](CC(C)C)NC1=O)C(=O)N[C@@H]([C@@H](C)CC)C(=O)N1CCC[C@H]1C(=O)N[C@@H](CC(=O)O)C(=O)N[C@@H](CC(N)=O)C(=O)N[C@@H](CC(=O)O)C(=O)N[C@@H](CCCCN)C(=O)N3)NC(=O)[C@H](C(C)C)NC(=O)[C@H](CC(C)C)NC(=O)[C@H](CC(N)=O)NC(=O)[C@@H]1CCCN1C(=O)[C@H](CCCNC(=N)N)NC2=O [compound 639]
- IC50 (hNav1.3): 33 nM
- IC50 (hNav1.7): 15 nM
- IC50 (hNav1.5): 1700 nM

SMILES: C#CC[C@@H]1NC(=O)[C@H](CC(=O)O)NC(=O)[C@@H]2CCCN2C(=O)[C@H]([C@@H](C)CC)NC(=O)[C@@H]2CSSC[C@@H]3NC(=O)[C@H](C(C)C)NC(=O)[C@H](CC(C)C)NC(=O)[C@H](CC(N)=O)NC(=O)[C@@H]4CCCN4C(=O)[C@H](CCCNC(=N)N)NC(=O)[C@H](CSSC[C@H](NC(=O)[C@@H](N)CC(=O)O)C(=O)N[C@@H](CC(C)C)C(=O)NCC(=O)N[C@@H](C)C(=O)N[C@@H](Cc4ccccc4)C(=O)N[C@@H](CCCNC(=N)N)C(=O)N[C@@H](CCCCN)C(=O)N2)NC(=O)[C@H](CSSC[C@@H](C(=O)N[C@@H](CCCCN)C(=O)N[C@@H](Cc2ccc(O)cc2)C(=O)N[C@H](C(=O)N[C@@H](Cc2ccccc2)C(N)=O)C(C)C)NC(=O)[C@H](Cc2c[nH]c4ccccc24)NC(=O)[C@H](CCCNC(=N)N)NC(=O)[C@H](Cc2c[nH]cn2)NC(=O)[C@H](CC(C)C)NC(=O)[C@H](CCCNC(=N)N)NC(=O)[C@H](CO)NC3=O)NC(=O)[C@H](CCCCN)NC(=O)[C@H](CC(=O)O)NC1=O [compound 640] (H-DCLGAFRKCIPD[Pra]DKCCRPNLVCSRLHRWCKYVF-NH2; disulfide 2-17, 9-23, 16-30)
- IC50 (hNav1.3): 90 nM
- IC50 (hNav1.7): 103 nM
- IC50 (hNav1.5): > 5000 nM
